*1 amine or outer side, *2 acyl side, *3 side chain or, on linkers, in order; H or OH if unused. Where a SMILES comes first, the peptide text is derived from it. Bridges are numbered along the chain shown (N, C = ends). [ ]: non-standard residue; d: D form. The star is where a group is joined. ξ: configuration not given here. Phe(4-(4-F-Ph)) = N[C@@H](Cc1ccc(-c2ccc(F)cc2)cc1)C(=O)O; Phe(3-CF3) = N[C@@H](Cc1cccc(C(F)(F)F)c1)C(=O)O; Phe(4-COOH) = N[C@@H](Cc1ccc(C(=O)O)cc1)C(=O)O; Bip = N[C@@H](Cc1ccc(-c2ccccc2)cc1)C(=O)O; Phe(3-Me) = Cc1cccc(C[C@H](N)C(=O)O)c1; γGlu = O=C(O)[C@H](CCC(=O)[*:2])N[*:1]; NH(CH2)12COOH = O=C(O)CCCCCCCCCCCCN*; Val(3-OH) = CC(C)(O)[C@H](N)C(=O)O; hArg = N=C(N)NCCCC[C@H](N)C(=O)O; 4Pal = N[C@@H](Cc1ccncc1)C(=O)O; Cha = N[C@@H](CC1CCCCC1)C(=O)O; Cit = NC(=O)NCCC[C@H](N)C(=O)O; Ile(3ξ) = CCC(C)[C@H](N)C(=O)O; Thr(3ξ) = CC(O)[C@H](N)C(=O)O; Chg = N[C@H](C(=O)O)C1CCCCC1; 12Ado = NCCCCCCCCCCCC(=O)O; Carboxymethyl = O=C(O)C*; NMeA = CN[C@@H](C)C(=O)O; Orn = NCCC[C@H](N)C(=O)O; Aun = NCCCCCCCCCCC(=O)O; Dab = NCC[C@H](N)C(=O)O; Dap = NC[C@H](N)C(=O)O; AEEA = NCCOCCOCC(=O)O
target: T1, PD-1/PD-L1 interaction (PE-labeled human PD-L1-Ig binding to Jurkat cell line over-expressing human PD-1) (Homo sapiens, UniProt Q15116); experiment: Jurkat-PD-1 Cell Binding High-Content Screening Assay (CBA); settings: Jurkat-hPD-1 cells, PE-labeled PD-L1-Ig 20 nM final; read-out: Jurkat HPD1 PDL1 IC50
T1 construct: expressed in transfected cells; host or cells: Jurkat
T1 sequence (Q15116 25-288): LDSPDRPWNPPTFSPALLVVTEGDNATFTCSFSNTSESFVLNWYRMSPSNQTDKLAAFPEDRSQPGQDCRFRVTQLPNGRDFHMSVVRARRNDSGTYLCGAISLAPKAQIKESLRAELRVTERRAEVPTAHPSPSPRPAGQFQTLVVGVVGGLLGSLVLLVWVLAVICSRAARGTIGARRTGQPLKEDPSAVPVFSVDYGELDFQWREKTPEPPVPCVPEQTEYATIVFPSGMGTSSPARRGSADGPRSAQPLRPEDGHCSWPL
Summary of the method: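 Binding of 20 nM (final) PE-tagged PD-L1-Ig to compound-pretreated Jurkat-hPD-1 cells was measured by high-content imaging after 1 h. Pretreatment ran 2 h at 37 °C in DMEM with 10% fetal calf serum.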

SMILES	IC50 [nM]
CC(C)C[C@H]1NC(=O)[C@H](C)N(C)C(=O)[C@H](C(C)C)NC(=O)[C@H](Cc2ccc(-c3ccccc3)cc2)NC(=O)[C@H](C2CCCCC2)NC(=O)[C@H](Cc2c[nH]c3ccccc23)NC(=O)[C@H](CC(=O)O)NC(=O)[C@H](CCCCNC(=N)N)NC(=O)[C@H](Cc2ccc(OCC(=O)O)cc2)NC(=O)CSC[C@@H](C(=O)N[C@@H](CCCCN)C(=O)NCCOCCOCC(=O)NCCCCCCCCCCC(=O)O)NC(=O)[C@H](CO)NC(=O)[C@H](C(C)C)NC(=O)[C@H](CC2CCCCC2)NC(=O)[C@H](CC(=O)O)NC1=O [Example 2093] ({CH2CO}-Y(Carboxymethyl)[hArg]DW[Chg][Bip]V[NMeA][dL]D[Cha]VSCK[AEEA][Aun]-OH; thioether N-14)	21
COC[C@@H]1NC(=O)CSC[C@@H](C(=O)N[C@@H](CCN)C(=O)NCCCCCCCCCCCCC(=O)O)NC(=O)[C@H](CCC(=O)O)NC(=O)[C@H](C(C)C)NC(=O)[C@H](CC2CCCCC2)NC(=O)[C@H](CCN)NC(=O)[C@@H](CC(C)C)NC(=O)[C@H](C)N(C)C(=O)[C@H](CCCNC(N)=O)NC(=O)[C@H](Cc2ccc(-c3ccccc3)cc2)NC(=O)[C@H](Cc2ccc(C(=O)O)cc2)NC(=O)[C@H](Cc2cccc(C(F)(F)F)c2)NC(=O)[C@H](CC(=O)O)NC(=O)[C@H](Cc2ccc(OCC(=O)O)cc2)NC1=O [Example 1139] ({CH2CO}-S(Me)Y(Carboxymethyl)D[Phe(3-CF3)][Phe(4-COOH)][Bip][Cit][NMeA][dL][Dab][Cha]VEC[Dab]-{NH(CH2)12COOH}; thioether N-14)	12.7
CCC(C)[C@@H]1NC(=O)[C@H](Cc2ccc(-c3ccccc3)cc2)NC(=O)[C@H](CC(C)C)NC(=O)[C@H](Cc2c[nH]c3ccccc23)NC(=O)[C@H](CC(=O)O)NC(=O)[C@H](Cc2ccc(C(=O)O)cc2)NC(=O)[C@H](Cc2ccc(OCC(=O)O)cc2)NC(=O)CSC[C@@H](C(=O)N[C@@H](CC(N)=O)C(=O)N[C@@H](CCC(=O)NCCCCCCCCCCC(=O)O)C(=O)O)NC(=O)[C@H](CO)NC(=O)[C@H](C(C)C)NC(=O)[C@H](CC2CCCCC2)NC(=O)[C@H](CCN)NC(=O)[C@@H](CC(C)C)NC(=O)[C@H](C)N(C)C1=O (stereo partly drawn) [Example 2069] ({CH2CO}-Y(Carboxymethyl)[Phe(4-COOH)]DWL[Bip][Ile(3ξ)][NMeA][dL][Dab][Cha]VSCN[γGlu][Aun]-OH; thioether N-14)	24.5
Cc1cccc(C[C@@H]2NC(=O)[C@H](CC(=O)O)NC(=O)[C@H](Cc3ccc(OCC(=O)O)cc3)NC(=O)[C@H]([C@@H](C)O)NC(=O)CSC[C@@H](C(=O)N[C@@H](CCN)C(=O)NCCCCCCCCCCC(=O)O)NC(=O)[C@H]([C@@H](C)O)NC(=O)[C@H](C(C)C)NC(=O)[C@H](CC3CCCCC3)NC(=O)[C@H](CCN)NC(=O)[C@@H](CC(C)C)NC(=O)[C@H](C)N(C)C(=O)[C@H](Cc3ccc(OCC(=O)O)cc3)NC(=O)[C@H](Cc3ccc(-c4ccc(F)cc4)cc3)NC(=O)[C@H](Cc3ccc(C(=O)O)cc3)NC2=O)c1 [Example 1235] ({CH2CO}-TY(Carboxymethyl)D[Phe(3-Me)][Phe(4-COOH)][Phe(4-(4-F-Ph))]Y(Carboxymethyl)[NMeA][dL][Dab][Cha]VTC[Dab][Aun]-OH; thioether N-14)	9.5
Cc1cccc(C[C@@H]2NC(=O)[C@H](CC(=O)O)NC(=O)[C@H](Cc3ccc(OCC(=O)O)cc3)NC(=O)[C@H]([C@@H](C)O)NC(=O)CSC[C@@H](C(=O)NCCOCCOCC(=O)NCCCCCCCCCCC(=O)O)NC(=O)[C@H](CO)NC(=O)[C@H](C(C)(C)O)NC(=O)[C@H](CC3CCCCC3)NC(=O)[C@H](CCN)NC(=O)[C@@H](CC(C)C)NC(=O)[C@H](C)N(C)C(=O)[C@H](CCCNC(N)=O)NC(=O)[C@H](Cc3ccc(-c4ccccc4)cc3)NC(=O)[C@H](C(C)C)NC2=O)c1 [Example 1403] ({CH2CO}-TY(Carboxymethyl)D[Phe(3-Me)]V[Bip][Cit][NMeA][dL][Dab][Cha][Val(3-OH)]SC[AEEA][Aun]-OH; thioether N-14)	5
CC(C)C[C@@H]1NC(=O)[C@H](Cc2c[nH]c3ccccc23)NC(=O)[C@H](CC(=O)O)NC(=O)[C@H](Cc2c[nH]cn2)NC(=O)[C@H](CCCCNC(=N)N)NC(=O)CSC[C@@H](C(=O)N[C@@H](CCN)C(=O)NCCCCCCCCCCC(=O)O)NC(=O)[C@H](CCCCN)NC(=O)[C@H](C(C)C)NC(=O)[C@H](CC2CCCCC2)NC(=O)[C@H](CCN)NC(=O)[C@@H](CC(C)C)NC(=O)[C@H](C)N(C)C(=O)[C@H](C(C)C)NC(=O)[C@H](Cc2ccc(-c3ccccc3)cc2)NC1=O [Example 2194] ({CH2CO}-[hArg]HDWL[Bip]V[NMeA][dL][Dab][Cha]VKC[Dab][Aun]-OH; thioether N-14)	39.6
CCC(C)[C@@H]1NC(=O)[C@H](Cc2ccc(-c3ccccc3)cc2)NC(=O)[C@H](CC(C)C)NC(=O)[C@H](Cc2cccc(C)c2)NC(=O)[C@H](CC(=O)O)NC(=O)[C@H](Cc2ccc(O)cc2)NC(=O)[C@H](Cc2ccncc2)NC(=O)CSC[C@@H](C(=O)N[C@@H](CCN)C(=O)NCCCCCCCCCCC(=O)O)NC(=O)[C@H](CCCCN)NC(=O)[C@H](C(C)C)NC(=O)[C@H](CC(C)C)NC(=O)[C@H](CCN)NC(=O)[C@@H](C)NC(=O)[C@H](C)N(C)C1=O (stereo partly shown) [Example 2200] ({CH2CO}-[4Pal]YD[Phe(3-Me)]L[Bip][Ile(3ξ)][NMeA][dA][Dab]LVKC[Dab][Aun]-OH; thioether N-14)	20.6

Results, then the compound that gave them:

IC50 [nM]	SMILES
54.3	CCC(C)[C@@H]1NC(=O)[C@H](Cc2ccc(-c3ccccc3)cc2)NC(=O)[C@H](CC(C)C)NC(=O)[C@H](Cc2c[nH]c3ccccc23)NC(=O)[C@H](CC(=O)O)NC(=O)[C@H](Cc2ccc(O)cc2)NC(=O)[C@H](CC(N)=O)NC(=O)CSC[C@@H](C(=O)N[C@@H](C)C(=O)NCCOCCOCC(=O)N[C@@H](CCCN)C(=O)NCCCCCCCCCCC(=O)O)NC(=O)[C@H](CO)NC(=O)[C@H](C(C)C)NC(=O)[C@H](CC2CCCCC2)NC(=O)[C@H](CC(N)=O)NC(=O)[C@@H](CC(C)C)NC(=O)[C@H](C)N(C)C1=O (stereo partly drawn) [Example 2076] ({CH2CO}-NYDWL[Bip][Ile(3ξ)][NMeA][dL]N[Cha]VSCA[AEEA][Orn][Aun]-OH; thioether N-14)
16	Cc1cccc(C[C@@H]2NC(=O)[C@H](CC(=O)O)NC(=O)[C@H](Cc3ccc(OCC(=O)O)cc3)NC(=O)[C@H](CCCCNC(=N)N)NC(=O)CSC[C@@H](C(=O)N[C@@H](CO)C(=O)NCCOCCOCC(=O)N[C@@H](CCCN)C(=O)NCCCCCCCCCCCC(=O)O)NC(=O)[C@H](CO)NC(=O)[C@H](C(C)C)NC(=O)[C@H](CC3CCCCC3)NC(=O)[C@H](CCN)NC(=O)[C@@H](CC(C)C)NC(=O)[C@H](C)N(C)C(=O)[C@H](C(C)C)NC(=O)[C@H](Cc3ccc(-c4ccccc4)cc3)NC(=O)[C@H](CC(C)C)NC2=O)c1 [Example 2122] ({CH2CO}-[hArg]Y(Carboxymethyl)D[Phe(3-Me)]L[Bip]V[NMeA][dL][Dab][Cha]VSCS[AEEA][Orn][12Ado]-OH; thioether N-14)
23.7	CCC(C)[C@@H]1NC(=O)[C@H](Cc2ccc(-c3ccccc3)cc2)NC(=O)[C@H](CC(C)C)NC(=O)[C@H](Cc2c[nH]c3ccccc23)NC(=O)[C@H](CC(=O)O)NC(=O)[C@H](Cc2ccc(C(=O)O)cc2)NC(=O)[C@H](Cc2ccc(OCC(=O)O)cc2)NC(=O)CSC[C@@H](C(=O)N[C@@H](CC(N)=O)C(=O)NCCOCCOCC(=O)NCCCCCCCCCCC(=O)O)NC(=O)[C@H](CO)NC(=O)[C@H](C(C)(C)O)NC(=O)[C@H](CC2CCCCC2)NC(=O)[C@H](CCN)NC(=O)[C@@H](CC(C)C)NC(=O)[C@H](C)N(C)C1=O (stereo partly drawn) [Example 1409] ({CH2CO}-Y(Carboxymethyl)[Phe(4-COOH)]DWL[Bip][Ile(3ξ)][NMeA][dL][Dab][Cha][Val(3-OH)]SCN[AEEA][Aun]-OH; thioether N-14)
14.2	CC(C)C[C@@H]1NC(=O)[C@H](Cc2c[nH]c3ccccc23)NC(=O)[C@H](CC(=O)O)NC(=O)[C@H](Cc2ccc(C(=O)O)cc2)NC(=O)[C@H](Cc2ccc(OCC(=O)O)cc2)NC(=O)CSC[C@@H](C(=O)N[C@@H](CCCN)C(=O)NCCOCCOCC(=O)NCCCCCCCCCCC(=O)O)NC(=O)[C@H](CO)NC(=O)[C@H](C(C)C)NC(=O)[C@H](CC2CCCCC2)NC(=O)[C@H](CCCN)NC(=O)[C@@H](CC(C)C)NC(=O)[C@H](C)N(C)C(=O)[C@H](C(C)C)NC(=O)[C@H](Cc2ccc(-c3ccccc3)cc2)NC1=O [Example 2138] ({CH2CO}-Y(Carboxymethyl)[Phe(4-COOH)]DWL[Bip]V[NMeA][dL][Orn][Cha]VSC[Orn][AEEA][Aun]-OH; thioether N-14)
15	CCC(C)[C@@H]1NC(=O)[C@H](Cc2ccc(-c3ccccc3)cc2)NC(=O)[C@H](C(C)C)NC(=O)[C@H](Cc2c[nH]c3ccccc23)NC(=O)[C@H](CC(=O)O)NC(=O)[C@H](Cc2ccc(OCC(=O)O)cc2)NC(=O)[C@H](Cc2ccncc2)NC(=O)CSC[C@@H](C(=O)N[C@@H](CCCCN)C(=O)NCCOCCOCC(=O)NCCCCCCCCCCC(=O)O)NC(=O)[C@H](C(C)O)NC(=O)[C@H](C(C)C)NC(=O)[C@H](CC2CCCCC2)NC(=O)[C@H](CCN)NC(=O)[C@@H](CC(C)C)NC(=O)[C@H](C)N(C)C1=O (stereo partly drawn) [Example 2105] ({CH2CO}-[4Pal]Y(Carboxymethyl)DWV[Bip][Ile(3ξ)][NMeA][dL][Dab][Cha]V[Thr(3ξ)]CK[AEEA][Aun]-OH; thioether N-14)

same assay, conditions: PE-labeled PD-L1-Ig 20 nM final, Jurkat-hPD-1 cells; read-out: Jurkat HPD1 PDL1 IC50

IC50 [nM]	SMILES
30.7	Cc1cccc(C[C@@H]2NC(=O)[C@H](CC(=O)O)NC(=O)[C@H](Cc3ccc(OCC(=O)O)cc3)NC(=O)[C@H](CN)NC(=O)CSC[C@@H](C(=O)N[C@@H](CCN)C(=O)NCCCCCCCCCCC(=O)O)NC(=O)[C@H](CO)NC(=O)[C@H](Cc3cnc[nH]3)NC(=O)[C@H](CC3CCCCC3)NC(=O)[C@H](CCN)NC(=O)[C@@H](CC(C)C)NC(=O)[C@H](C)N(C)C(=O)[C@H](Cc3ccc(OCC(=O)O)cc3)NC(=O)[C@H](Cc3ccc(-c4ccccc4)cc3)NC(=O)[C@H](Cc3ccc(OCC(=O)O)cc3)NC2=O)c1 [Example 2427] ({CH2CO}-[Dap]Y(Carboxymethyl)D[Phe(3-Me)]Y(Carboxymethyl)[Bip]Y(Carboxymethyl)[NMeA][dL][Dab][Cha]HSC[Dab][Aun]-OH; thioether N-14)

From patent US20260070945A1, “MACROCYCLIC IMMUNOMODULATORS” (Bristol-Myers Squibb Company, priority 2022, published 2026)
